Measurements: patent EP1808172A2, “Botanical extract compositions and methods of use” (The Medical Research and Education Trust, priority 2002, dated 2003)

Legend:
Type in all cases: cell-based
[1] = molecular target: T1, hERβ (Homo sapiens, UniProt Q92731); experiment: ERE-LUC reporter gene activation in transfected HEK 293 cells, ER beta; conditions: 0 to 9 µg/ml, 20 hours
T1 construct: expressed in transfected cells; host or cells: HEK 293 cells (ATCC CRL-1573)
Description: (§1) HEK 293 cells (ATCC CRL-1573) were transfected with an expression vector for hERα and hERβ respectively, and an ERE-LUC reporter gene (plus a TK-LUC reporter for normalization) following the protocol of Yoon et al ("Differential activation of wild-type and variant forms of estrogen receptor α by synthetic and natural estrogenic compounds using a promoter containing three estrogen-responsive elements", J. Steroid Biochem. & Molecular Biology (2000), 28: pages 25-32).

[2] = molecular target: T2, hERα (Homo sapiens, UniProt P03372); experiment: ERE-LUC reporter gene activation in transfected HEK 293 cells, ER alpha; conditions: 0 to 9 µg/ml, 20 hours
T2 construct: expressed in transfected cells; host or cells: HEK 293 cells (ATCC CRL-1573)
Description: as §1

[3] = test system: LNCaP cell cycle; experiment: Cell cycle measurement by DNA content flow cytometry, LNCaP; conditions: LNCaP cells, exposed 24-48 hours
Experimental: (§2) The cells were washed with phosphate buffered saline (PBS) and fixed in ice-cold 70% ethanol. Aliquots of fixed cells were rehydrated in PBS and stained with 1.0 microgram/milliliter DAPI (4,6-diamidino-2-phenylindole from Eastman Kodak, Rochester, NY), and dissolved in 10 millimolar piperazine-NN-bis-2-ethane-sulfonic acid buffer (Calbiochem, La Jolla, CA) containing 100 millimolar NaCl, 2mM MgCl2 and 0,1% Triton X-100 (Sigma) at pH 6.8 as previously described by Halicka et al. (H. D. Halicka, B. Ardelt, G. Juan, A. Mittelman, S. Chen, F. Traganos and Z. Darzynkiewicz, "Apoptosis and Cell Cycle Effects Induced by Extracts of the Chinese Herbal Preparation of PC SPES", International J. of Oncology (1997), 11: 437-448).
(§3) The cellular DNA content was measured with an ELITE ESP flow cytometer (Coulter Inc., Fl.) using UV laser illumination. The multicycle program was used to deconvolute the DNA frequency histograms to estimate the frequency of cells in different phases of the cell cycle.

[4] = test system: DU-145 cell cycle; experiment: Cell cycle measurement by DNA content flow cytometry, DU-145; conditions: DU-145 cells, protocol of Example 3
Experimental: as §2, §3
A prolongation in the G2M phase leads to the suppression of DU-145 cell proliferation.

T2 sequence (P03372 whole entry): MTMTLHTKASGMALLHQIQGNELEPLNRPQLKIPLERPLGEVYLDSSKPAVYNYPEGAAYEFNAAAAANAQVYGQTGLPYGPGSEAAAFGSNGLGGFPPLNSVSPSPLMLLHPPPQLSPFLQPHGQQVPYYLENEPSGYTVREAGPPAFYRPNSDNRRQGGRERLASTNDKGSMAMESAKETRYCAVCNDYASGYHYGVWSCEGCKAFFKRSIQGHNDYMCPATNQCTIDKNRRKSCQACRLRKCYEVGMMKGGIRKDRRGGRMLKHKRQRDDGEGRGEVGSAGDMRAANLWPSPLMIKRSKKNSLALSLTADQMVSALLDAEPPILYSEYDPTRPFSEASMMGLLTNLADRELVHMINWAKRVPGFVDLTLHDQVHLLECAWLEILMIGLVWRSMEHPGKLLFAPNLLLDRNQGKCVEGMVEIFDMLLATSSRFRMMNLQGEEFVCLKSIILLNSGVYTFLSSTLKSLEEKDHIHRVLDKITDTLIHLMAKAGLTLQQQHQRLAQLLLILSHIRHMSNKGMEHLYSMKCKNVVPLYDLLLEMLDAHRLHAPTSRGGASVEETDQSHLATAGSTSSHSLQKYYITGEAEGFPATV
T1 sequence (Q92731 whole entry): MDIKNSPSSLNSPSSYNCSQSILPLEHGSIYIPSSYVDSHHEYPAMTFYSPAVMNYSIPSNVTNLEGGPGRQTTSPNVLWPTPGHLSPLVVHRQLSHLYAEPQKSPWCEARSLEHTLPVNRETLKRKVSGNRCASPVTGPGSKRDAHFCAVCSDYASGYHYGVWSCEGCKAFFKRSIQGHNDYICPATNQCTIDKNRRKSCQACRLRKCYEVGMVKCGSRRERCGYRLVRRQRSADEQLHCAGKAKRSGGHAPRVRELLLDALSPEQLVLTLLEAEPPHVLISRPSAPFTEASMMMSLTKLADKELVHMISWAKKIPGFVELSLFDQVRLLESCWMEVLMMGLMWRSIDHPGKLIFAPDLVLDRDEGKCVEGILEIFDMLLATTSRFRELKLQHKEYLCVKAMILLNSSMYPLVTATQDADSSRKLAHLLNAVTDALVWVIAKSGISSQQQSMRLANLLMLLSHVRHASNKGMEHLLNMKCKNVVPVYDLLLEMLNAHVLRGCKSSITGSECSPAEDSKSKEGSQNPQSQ

SMILES | ERβ-Luc reporter gene activation [1] | ERα-Luc reporter gene activation [2] | effect on G1, S, and G2M phases of the LNCaP cell cycle [3] | effect on the DU-145 cell cycle [4]
O=C(/C=C/c1ccc(O)cc1)c1ccc(O)cc1O [isoliquiritigenin, 2',4,4'-trihydroxychalcone] | activated | activated | induced a G2M phase arrest | 
COc1c(O)cc(O)c2c(=O)cc(-c3ccccc3)oc12 [Wogonin, 5,7-dihydroxy-8-methoxy-flavone] | activated | activated | induced a G1 phase arrest | prolonged the G2M phase
